Data from patent US4490364A, “CCK Agonists II” (The Salk Institute for Biological Studies, priority 1983, dated 1984).
Non-standard residues stand in square brackets, D forms with d. Residues, ends and D or L forms follow the SMILES beside them. sY = N[C@@H](Cc1ccc(OS(=O)(=O)O)cc1)C(=O)O

Experiments:
[1] = test system: isolated strips of rabbit gall bladder; experiment: contraction of the gall bladder (CCK-activity), isolated strips of rabbit gall bladder; format: cell-based
Procedure: (§1) To determine the effectiveness of the various synthetic peptides, they are tested for their ability to stimulate the contraction of the gall bladder, for gastrinic activity in the stomach and for their anticonvulsive effect. Certain well known tests are carried out, and the results are measured and compared to the activity of CCK(1-8). Some of the results are given as a percentage relative to the activity of CCK(1-8). The ability to stimulate the contraction of the gall bladder is measured using a modified method of Amer and Becvar, described in J. Endocrinology, 43, 637 (1969) and employing isolated strips of rabbit gall bladder.

perfused rat stomach = experiment: gastrinic activity on perfused rat stomach, conductometric titration of HCl liberated after iv administration; format: in vivo
Procedure: as §1

mouse = experiment: anticonvulsive effect against picrotoxin-induced seizures in the mouse; format: in vivo; details: peptide about 0.8 micromoles per kg parenterally, then picrotoxin i.p., relative to CCK(1-8) = 100%
Procedure: The anticonvulsive effect is measured by the method as generally described in The European J. of Pharm., 65, 297 (1980). More specifically, a mouse is first injected parenterally with the peptide being tested with a single dose equal to about 0.8 micromoles per kilogram of body weight. Thereafter, picrotoxin is injected i.p. in an amount equal to about […] of body weight. The parameters that are measured: time until first tremor, time until first clonic seizure, time until first tonic seizure and time of latentia until death, measured from the time of injection of the picrotoxin.

[2] = Ondetti and Pluscec; cited from earlier work
[3] = test system: secretion of gastric acid; details: i.v. at low dosages; cited from earlier work
muscle sphincter Oddii = details: cited from earlier work

## CSCC[C@H](NC(=O)[C@H](Cc1c[nH]c2ccccc12)NC(=O)[C@@H](C)NC(=O)[C@H](CCSC)NC(=O)[C@H](Cc1ccc(OS(=O)(=O)O)cc1)NC(C)=O)C(=O)N[C@@H](CC(=O)O)C(=O)N[C@@H](Cc1ccccc1)C(N)=O [[D-Ala^4]-Ac-CCK (2-8), Ac--Tyr(OSO3 Na)--Met--D--Ala--Trp--Met--Asp--Phe--NH2] (Ac-[sY]M[dA]WMDF-NH2)
[1]; relative to CCK(1-8) = 100%, contraction of isolated rabbit gall bladder strips
  CCK-activity % /CCK (1-8) 100%/: 40%
Perfused rat stomach; relative to pentagastrin = 100%, perfused rat stomach, iv
  gastrinic activity % /Pentagastrin 100%/: 0%
mouse
  Delay until first tonic seizure (efficacy): 100%
  Delay until time of death (efficacy): 126%

## H--Asp--Tyr(OSO3 Na)--Nle--Gly--Trp--Nle--Hyp(OSO3 Na)--Tyr(OCH3)--NH2
[1]; result in words
  CCK activity compared with CCK(1-8): CCK activity significantly greater than CCK(1-8)
Perfused rat stomach; result in words
  gastrinic activity: substantially no gastrinic activity

## CSCC[C@H](NC(=O)[C@H](Cc1ccc(OS(=O)(=O)O)cc1)NC(=O)[C@@H](N)CC(=O)O)C(=O)NCC(=O)N[C@@H](Cc1c[nH]c2ccccc12)C(=O)N[C@@H](CCSC)C(=O)N[C@@H](CC(=O)O)C(=O)N[C@@H](Cc1ccccc1)C(N)=O [CCK (1-8)]
[2]
  activity compared with the complete molecule of cholecystokinin-pancreozymin: considerably higher activity than the complete molecule of cholecystokinin-pancreozymin
mouse
  Delay until first tonic seizure (efficacy): 100%
  Delay until time of death (efficacy): 100%
[3]
  gastrinic activity in causing secretion of gastric acid: some gastrinic activity
Muscle sphincter Oddii
  action on the muscle sphincter Oddii: strong relaxing action
